Experimental data from ChEMBL document CHEMBL2440080, “Synthesis and biological evaluation of novel acylhydrazone derivatives as potential antitumor agents” (Bioorg Med Chem, 2013).

Assays:
UO-31 = assay: Cytotoxicity against human UO31 cells after 48 hrs by sulforhodamine B assay; format: functional; conditions: UO-31, 48 h
HT-29 = assay: Cytotoxicity against human HT-29 cells after 48 hrs by sulforhodamine B assay; format: functional; conditions: HT-29, 48 h
SK-OV-3 = assay: Cytotoxicity against human SKOV3 cells after 48 hrs by sulforhodamine B assay; format: functional; conditions: SK-OV-3, 48 h
NCI-H322M = assay: Cytotoxicity against human NCI-H322M cells after 48 hrs by sulforhodamine B assay; format: functional
HOP-62 = assay: Cytotoxicity against human HOP62 cells after 48 hrs by sulforhodamine B assay; format: functional; conditions: HOP-62, 48 h
NCI-H226 = assay: Cytotoxicity against human NCI-H226 cells after 48 hrs by sulforhodamine B assay; format: functional; conditions: NCI-H226, 48 h
NCI-H522 = assay: Cytotoxicity against human NCI-H522 cells after 48 hrs by sulforhodamine B assay; format: functional; conditions: NCI-H522, 48 h
T47D = assay: Cytotoxicity against human T47D cells after 48 hrs by sulforhodamine B assay; format: functional
NCI/ADR-RES = assay: Cytotoxicity against human NCI/ADR-RES cells after 48 hrs by sulforhodamine B assay; format: functional
SF-539 = assay: Cytotoxicity against human SF539 cells after 48 hrs by sulforhodamine B assay; format: functional; conditions: SF-539, 48 h
SF-268 = assay: Cytotoxicity against human SF268 cells after 48 hrs by sulforhodamine B assay; format: functional; conditions: SF-268, 48 h
HL-60(TB) = assay: Cytotoxicity against human HL-60(TB) cells after 48 hrs by sulforhodamine B assay; format: functional; conditions: HL-60, 48 h
SF-295 = assay: Cytotoxicity against human SF295 cells after 48 hrs by sulforhodamine B assay; format: functional; conditions: SF-295, 48 h
MDA-MB-435 = assay: Cytotoxicity against human MDA-MB-435 cells after 48 hrs by sulforhodamine B assay; format: functional; conditions: MDA-MB-435, 48 h
U-251 = assay: Cytotoxicity against human U251 cells after 48 hrs by sulforhodamine B assay; format: functional; conditions: U-251, 48 h
SNB-75 = assay: Cytotoxicity against human SNB75 cells after 48 hrs by sulforhodamine B assay; format: functional; conditions: SNB-75, 48 h
CAKI-1 = assay: Cytotoxicity against human CAKI-1 cells after 48 hrs by sulforhodamine B assay; format: functional; conditions: CAKI-1, 48 h
UACC-257 = assay: Cytotoxicity against human UACC257 cells after 48 hrs by sulforhodamine B assay; format: functional; conditions: UACC-257, 48 h
LOX IMVI = assay: Cytotoxicity against human LOXIMVI cells after 48 hrs by sulforhodamine B assay; format: functional
NCI-H23 = assay: Cytotoxicity against human NCI-H23 cells after 48 hrs by sulforhodamine B assay; format: functional; conditions: NCI-H23, 48 h
A549 = assay: Cytotoxicity against human A549/ATCC cells after 48 hrs by sulforhodamine B assay; format: functional; conditions: A549, 48 h
[1] = Cytotoxicity against human EKVX cells after 48 hrs by sulforhodamine B assay; format: functional
MOLT-4 = assay: Cytotoxicity against human MOLT4 cells after 48 hrs by sulforhodamine B assay; format: functional; conditions: MOLT-4, 48 h
PC-3 = assay: Cytotoxicity against human PC3 cells after 48 hrs by sulforhodamine B assay; format: functional; conditions: PC-3, 48 h
OVCAR-4 = assay: Cytotoxicity against human OVCAR4 cells after 48 hrs by sulforhodamine B assay; format: functional; conditions: OVCAR-4, 48 h
TK-10 = assay: Cytotoxicity against human TK10 cells after 48 hrs by sulforhodamine B assay; format: functional; conditions: TK-10, 48 h
ACHN = assay: Cytotoxicity against human ACHN cells after 48 hrs by sulforhodamine B assay; format: functional
NCI-H460 = assay: Cytotoxicity against human NCI-H460 cells after 48 hrs by sulforhodamine B assay; format: functional; conditions: NCI-H460, 48 h
DU-145 = assay: Cytotoxicity against human DU145 cells after 48 hrs by sulforhodamine B assay; format: functional; conditions: DU-145, 48 h
SK-MEL-2 = assay: Cytotoxicity against human SK-MEL-2 cells after 48 hrs by sulforhodamine B assay; format: functional; conditions: SK-MEL-2, 48 h
OVCAR-3 = assay: Cytotoxicity against human OVCAR3 cells after 48 hrs by sulforhodamine B assay; format: functional; conditions: OVCAR-3, 48 h
HCT-116 = assay: Cytotoxicity against human HCT116 cells after 48 hrs by sulforhodamine B assay; format: functional; conditions: HCT-116, 48 h
CCRF-CEM = assay: Cytotoxicity against human CCRF-CEM cells after 48 hrs by sulforhodamine B assay; format: functional
COLO 205 = assay: Cytotoxicity against human COLO205 cells after 48 hrs by sulforhodamine B assay; format: functional; conditions: COLO 205, 48 h
HOP-92 = assay: Cytotoxicity against human HOP92 cells after 48 hrs by sulforhodamine B assay; format: functional; conditions: HOP-92, 48 h
M14 = assay: Cytotoxicity against human M14 cells after 48 hrs by sulforhodamine B assay; format: functional; conditions: M14, 48 h
KM12 = assay: Cytotoxicity against human KM12 cells after 48 hrs by sulforhodamine B assay; format: functional; conditions: KM12, 48 h
786-0 = assay: Cytotoxicity against human 786-0 cells after 48 hrs by sulforhodamine B assay; format: functional; conditions: 786-0, 48 h
Malme-3M = assay: Cytotoxicity against human MALME-3M cells after 48 hrs by sulforhodamine B assay; format: functional
OVCAR-8 = assay: Cytotoxicity against human OVCAR8 cells after 48 hrs by sulforhodamine B assay; format: functional; conditions: OVCAR-8, 48 h
MCF7 = assay: Cytotoxicity against human MCF7 cells after 48 hrs by sulforhodamine B assay; format: functional; conditions: MCF7, 48 h
BT-549 = assay: Cytotoxicity against human BT549 cells after 48 hrs by sulforhodamine B assay; format: functional; conditions: BT-549, 48 h
SW-620 = assay: Cytotoxicity against human SW620 cells after 48 hrs by sulforhodamine B assay; format: functional; conditions: SW-620, 48 h
SN12C = assay: Cytotoxicity against human SN12C cells after 48 hrs by sulforhodamine B assay; format: functional
MDA-MB-231 = assay: Cytotoxicity against human MDA-MB-231 cells after 48 hrs by sulforhodamine B assay; format: functional; conditions: MDA-MB-231, 48 h
HCC 2998 = assay: Cytotoxicity against human HCC2998 cells after 48 hrs by sulforhodamine B assay; format: functional; conditions: HCC 2998, 48 h
[2] = Cytotoxicity against human Hs 578T cells after 48 hrs by sulforhodamine B assay; format: functional
RXF 393 = assay: Cytotoxicity against human RXF393 cells after 48 hrs by sulforhodamine B assay; format: functional; conditions: RXF 393, 48 h
UACC-62 = assay: Cytotoxicity against human UACC62 cells after 48 hrs by sulforhodamine B assay; format: functional; conditions: UACC-62, 48 h
SNB-19 = assay: Cytotoxicity against human SNB19 cells after 48 hrs by sulforhodamine B assay; format: functional; conditions: SNB-19, 48 h
HCT-15 = assay: Cytotoxicity against human HCT15 cells after 48 hrs by sulforhodamine B assay; format: functional; conditions: HCT-15, 48 h
SK-MEL-28 = assay: Cytotoxicity against human SK-MEL-28 cells after 48 hrs by sulforhodamine B assay; format: functional; conditions: SK-MEL-28, 48 h
SR = assay: Cytotoxicity against human SR cells after 48 hrs by sulforhodamine B assay; format: functional
OVCAR-5 = assay: Cytotoxicity against human OVCAR5 cells after 48 hrs by sulforhodamine B assay; format: functional; conditions: OVCAR-5, 48 h
K562 = assay: Cytotoxicity against human K562 cells after 48 hrs by sulforhodamine B assay; format: functional; conditions: K562, 48 h
A498 = assay: Cytotoxicity against human A498 cells after 48 hrs by sulforhodamine B assay; format: functional; conditions: A498, 48 h
MDA-MB-468 = assay: Cytotoxicity against human MDA-MB-468 cells after 48 hrs by sulforhodamine B assay; format: functional; conditions: MDA-MB-468, 48 h
SK-MEL-5 = assay: Cytotoxicity against human SK-MEL-5 cells after 48 hrs by sulforhodamine B assay; format: functional; conditions: SK-MEL-5, 48 h
IGROV-1 = assay: Cytotoxicity against human IGROV1 cells after 48 hrs by sulforhodamine B assay; format: functional; conditions: IGROV-1, 48 h
RPMI-8226 = assay: Cytotoxicity against human RPMI8226 cells after 48 hrs by sulforhodamine B assay; format: functional; conditions: RPMI-8226, 48 h
Mus musculus = assay: Toxicity in athymic nude mouse assessed as survival at 400 mg/kg, ip measured after 2 weeks; format: organism-based; design: dose 400 mg/kg, route intraperitoneal; conditions: in vivo, 336 h

CCN(CC)c1ccc(/C=N/NC(=O)Cc2ccc(Nc3ccnc(C(F)(F)F)c3)cc2)c(O)c1
GI50 (UO-31): 389 nM
GI50 (HT-29): 676 nM
GI50 (SK-OV-3): 363 nM
GI50 (NCI-H322M): 398 nM
GI50 (HOP-62): 501 nM
GI50 (NCI-H226): 676 nM
GI50 (NCI-H522): 575 nM
GI50 (T47D): 631 nM
GI50 (NCI/ADR-RES): 537 nM
GI50 (SF-539): 479 nM
GI50 (SF-268): 537 nM
GI50 (HL-60(TB)): 339 nM
GI50 (SF-295): 501 nM
GI50 (MDA-MB-435): 912 nM
GI50 (U-251): 501 nM
GI50 (SNB-75): 2510 nM
GI50 (CAKI-1): 398 nM
GI50 (UACC-257): 1910 nM
GI50 (LOX IMVI): 398 nM
GI50 (NCI-H23): 1050 nM
GI50 (A549): 832 nM
GI50 [1]: 398 nM
GI50 (MOLT-4): 501 nM
GI50 (PC-3): 2000 nM
GI50 (OVCAR-4): 513 nM
GI50 (TK-10): 417 nM
GI50 (ACHN): 398 nM
GI50 (NCI-H460): 316 nM
GI50 (DU-145): 813 nM
GI50 (SK-MEL-2): 4900 nM
GI50 (OVCAR-3): 794 nM
GI50 (HCT-116): 398 nM
GI50 (CCRF-CEM): 316 nM
GI50 (COLO 205): 437 nM
GI50 (HOP-92): 1740 nM
GI50 (M14): 525 nM
GI50 (KM12): 676 nM
GI50 (786-0): 437 nM
GI50 (Malme-3M): 1000 nM
GI50 (OVCAR-8): 501 nM
GI50 (MCF7): 407 nM
GI50 (BT-549): 1350 nM
GI50 (SW-620): 813 nM
GI50 (SN12C): 977 nM
GI50 (MDA-MB-231): 1120 nM
GI50 (HCC 2998): 646 nM
GI50 [2]: 2190 nM
GI50 (RXF 393): 1000 nM
GI50 (UACC-62): 398 nM
GI50 (SNB-19): 525 nM
GI50 (HCT-15): 407 nM
GI50 (SK-MEL-28): 813 nM
GI50 (SR): 251 nM
GI50 (OVCAR-5): 776 nM
GI50 (K562): 550 nM
GI50 (A498): 5010 nM
GI50 (MDA-MB-468): 389 nM
GI50 (SK-MEL-5): 309 nM
GI50 (IGROV-1): 501 nM

CCN(CC)c1ccc(/C=N/NC(=O)c2ccccc2Nc2ccnc(C(F)(F)F)c2)c(O)c1
GI50 (UO-31): 141 nM
GI50 (HT-29): 347 nM
GI50 (SK-OV-3): 174 nM
GI50 (NCI-H322M): 100 nM
GI50 (HOP-62): 105 nM
GI50 (NCI-H226): 151 nM
GI50 (RPMI-8226): 41.7 nM
GI50 (NCI-H522): 263 nM
GI50 (T47D): 550 nM
GI50 (NCI/ADR-RES): 263 nM
GI50 (SF-539): 245 nM
GI50 (SF-268): 69.2 nM
GI50 (HL-60(TB)): 251 nM
GI50 (SF-295): 251 nM
GI50 (MDA-MB-435): 457 nM
GI50 (U-251): 126 nM
GI50 (SNB-75): 209 nM
GI50 (CAKI-1): 63.1 nM
GI50 (UACC-257): 324 nM
GI50 (LOX IMVI): 79.4 nM
GI50 (NCI-H23): 513 nM
GI50 (A549): 309 nM
GI50 [1]: 158 nM
GI50 (MOLT-4): 79.4 nM
GI50 (PC-3): 263 nM
GI50 (OVCAR-4): 87.1 nM
GI50 (TK-10): 166 nM
GI50 (ACHN): 79.4 nM
GI50 (NCI-H460): 67.6 nM
GI50 (DU-145): 126 nM
GI50 (SK-MEL-2): 501 nM
GI50 (OVCAR-3): 126 nM
GI50 (HCT-116): 100 nM
GI50 (CCRF-CEM): 31.6 nM
GI50 (COLO 205): 174 nM
GI50 (HOP-92): 251 nM
GI50 (M14): 129 nM
GI50 (KM12): 251 nM
GI50 (786-0): 182 nM
GI50 (Malme-3M): 339 nM
GI50 (OVCAR-8): 209 nM
GI50 (MCF7): 288 nM
GI50 (BT-549): 347 nM
GI50 (SW-620): 363 nM
GI50 (SN12C): 240 nM
GI50 (MDA-MB-231): 195 nM
GI50 (HCC 2998): 191 nM
GI50 [2]: 871 nM
GI50 (RXF 393): 251 nM
Activity (Mus musculus): Non-toxic
GI50 (UACC-62): 214 nM
GI50 (SNB-19): 479 nM
GI50 (HCT-15): 50.1 nM
GI50 (SK-MEL-28): 240 nM
GI50 (SR): 138 nM
GI50 (OVCAR-5): 200 nM
GI50 (K562): 380 nM
GI50 (A498): 178 nM
GI50 (MDA-MB-468): 151 nM
GI50 (SK-MEL-5): 158 nM
GI50 (IGROV-1): 79.4 nM
